According to paper PMC8626775, “Anti-schistosomal activities of quinoxaline-containing compounds: From hit identification to lead optimisation” (European Journal of Medicinal Chemistry, 2021):
Several values for one entry are separate records, joined by “and”; a condition that tells them apart may be missing. Equal values may be shown once. Entries after “also recorded” stand apart in the source; their conditions may differ. Read-outs that look alike come from different tables or passages of the source.

How the values were obtained:
HepG2 cells = experiment: HepG2 MTT cytotoxicity assay; settings: for Selectivity Index (SI) Somula: HepG2 CC50 versus schistosomula EC50
Protocol: Initially the cells were handled under sterile conditions and grown at 37 °C in a humidified atmosphere containing 5% CO2. Cytotoxicity was evaluated by way of a 3-(4, 5- dimethylthiazol-2-yl)-2,5-diphenyl tetrazolium bromide (MTT) assay as previously described. The cells were counted in a dual chamber counting slide using the BIORAD TC-10 Automated cell counter, seeded in a 96-well plate (Fisher Scientific, Loughborough, UK) at a density of 2 × 10^4 cells/well and incubated in an atmosphere of 5% CO2 at 37 °C. […] The absorbance readings (at 570 nm) of the soluble formazan crystals were recorded using PolarStar Omega plate reader (BMG-Labtech). […] The latter was used to calculate the selectivity index (SI) of the compounds presented herein.

S. mansoni adult worms = experiment: S. mansoni adult worm motility screen (WormassayGP2), 72 h; format: cell-based, Schistosoma mansoni; settings: for EC50: Schistosoma mansoni
Text: Mice (Mus musculus HsdOLa:TO - Tuck Ordinary; Envigo, UK) were used for the mammalian-specific propagation of the S. mansoni life cycle. Experimental animals were infected with 4000 or 180 S. mansoni cercariae/mouse and perfused three- or seven-weeks post-infection to obtain S. mansoni juvenile or adult worms, respectively. Preparation steps following perfusion have been described previously. Briefly, the parasite material was washed three times with pre-warmed adult worm media (DMEM (Gibco, Paisley, UK) supplemented with 10% (v/v) Fetal Calf Serum (FCS, Gibco, Paisley, UK), 1% (v/v) L-glutamine (Gibco, Paisley, UK) and an antibiotic mixture (150 Units/ml penicillin and 150 μg/ml streptomycin; Gibco, UK)) to remove residual host contamination and incubated in a humidified environment containing 5% CO2 at 37 °C for at least 1 h.
For the evaluation of anti-schistosomal activity on the adult stage of the parasite, 7-wk old worms were transferred into 48 well tissue culture plates (1–3 worm pairs/well, in duplicate). […] DMSO (0.5%) and praziquantel (10 μM in 0.5% DMSO) were also included as negative and positive control treatments. Treated adult worms were incubated for 72 h in a humidified environment containing 5% CO2 at 37 °C. Parasite motility after compound treatment was assessed by a digital image processing-based system (WormassayGP2), modified after Wormassay. Following compound-parasite co-incubation, eggs were collected, fixed in formalin (10% v/v formaldehyde) and enumerated aiming to collect further information on any compound-induced effects on parasite fecundity and IVLE production.

S. mansoni schistosomula = S. mansoni schistosomula high-throughput phenotype and motility screen (Roboworm), 72 h; format: cell-based, Schistosoma mansoni; settings: for EC50: Schistosoma mansoni
Protocol: Cercariae derived from the NMRI ([…]) Puerto Rican strain (PR-1) of S. mansoni were shed from two Biomphalaria glabrata strains, the NMRI albino and pigmented outbred strains, under intensified lighting conditions (1 h of incubation at 26 °C). Cercariae were then mechanically transformed into schistosomula as previously described.
High-throughput screening (HTS) of selected compounds was conducted as previously described. Briefly, newly transformed schistosomula were distributed in a 384-well tissue culture plate (PerkinElmer, cat 6007460, seeding density of 120 parasites/well). Each compound (at a single concentration or two-fold titrations) was transferred into individual wells alongside the positive and negative controls (AUR at 10 μM final concentration in 0.625% DMSO and 0.625% DMSO, respectively). Schistosomula/compound co-cultures were then incubated at 37 °C for 72 h in a humidified atmosphere containing 5% CO2. Following the co-culture period, automatic assessment of compound-induced schistosomula motility and phenotypic changes were conducted with the high-content imaging platform Roboworm using the image analysis model previously described by Paveley et al..

[1] = tested on: adult S. japonicum male worms; experiment: In vitro screening of S. japonicum adults at 100 nM (WormAssay motility, descriptors, severity score); format: cell-based, Schistosoma japonicum; design: key to DESCRIPTORS 48 h / DESCRIPTORS 72 h: Dark = dark; S = Slow; S-uncoord = uncoordinated slow movements; O-uncoord = uncoordinated fast movements; On sides = male worms are not adhering to dish with ventral sucker; Shrunk = worms are not flexing and are smaller than usual; Teg damage = outer surface (tegument of the worm) is damaged; Deg= degenerating; D = Dead; settings: for Effect on S. japonicum adult male worms: 5, 24, 48 and 72 h; for SEVERITY SCORES 5 h / SEVERITY SCORES 24 h / SEVERITY SCORES 48 h / SEVERITY SCORES 72 h: max = 4, one line per replicate
Protocol: (§1) For each species, parasite recovery involved reverse perfusion of the hepatic portal and mesenteric system using DMEM (Fisher Scientific). Parasites were washed six times with Basch 169 medium supplemented with 100 U/ml penicillin and 100 μg/ml streptomycin before manually distributing approximately 5 males per well (on occasion 1 or 2 females might also be present) of a 24-well plate (Corning Costar 3524). […] The next morning, a final concentration of 100 nM compound (in 1 μL DMSO) was added to each well and the final volume made up to 2 ml with Basch 169 medium supplemented with antibiotics and FBS. Each compound was tested in triplicate (except for some instances tested in duplicate). […] The phenotypic characterisation of compound effects focused on male worms due to the greater range of their motility characteristics that include flexing, bending, stretching, sucker walking and adherence, compared to the more sedentary female worms. In addition to descriptors, WormAssay, as adapted for the schistosome, was used to measure average worm motility per well [72, 73].

[2] = tested on: Adult S. haematobium worms; experiment: In vitro screening of S. haematobium adults at 100 nM (WormAssay motility, descriptors, severity score); format: cell-based, Schistosoma haematobium
Protocol: as §1

[3] = Table 4, Series A, read-out: Anti-schistosomal activity EC50 Adult (nM) Motility
[4] = Table 2, 72 h, titrations 0.0095–5 μM, WormassayGP2, read-out: Activity on adult worms (EC50, μM - 72 h) Motility
[5] = 72 h, Table 2, average of phenotype and motility EC50, 72 h, read-out: Activity on schistosomula (EC50, μM - 72 h) Average
[6] = 72 h, Table 2, motility, 72 h, three replicate titrations (0.313–10 μM), read-out: Activity on schistosomula (EC50, μM - 72 h) M
[7] = 72 h, Table 2, phenotype, 72 h, three replicate titrations (0.313–10 μM), read-out: Activity on schistosomula (EC50, μM - 72 h) P
[8] = Table 4, Series A, read-out: Anti-schistosomal activity EC50 Schistosomula (μM) Motility
[9] = Table 4, Series A, read-out: Anti-schistosomal activity EC50 Schistosomula (μM) Phenotype
[10] = 72 h, read-out: EC50 on schistosomula (bounds and ranges given)
[11] = Table 3, read-out: Anti-schistosomal activity EC50 (μM) Schistosomula Motility
[12] = Table 3, read-out: Anti-schistosomal activity EC50 (μM) Schistosomula Phenotype
[13] = S. japonicum, one line per replicate

| EC50 (S. mansoni adult worms; [3]) | EC50 (S. mansoni adult worms; [4]) | EC50 (S. mansoni schistosomula; [5]) | EC50 (S. mansoni schistosomula; [6]) | EC50 (S. mansoni schistosomula; [7]) | EC50 (S. mansoni schistosomula; [8]) | EC50 (S. mansoni schistosomula; [9]) | Compound | Selectivity Index (SI) Somula (HepG2 cells) | Effect on S. japonicum adult male worms [1] | SEVERITY SCORES 5 h ([1]; S. japonicum) | SEVERITY SCORES 24 h ([1]; S. japonicum, 24 h) | SEVERITY SCORES 48 h ([1]; S. japonicum) | SEVERITY SCORES 72 h ([1]; S. japonicum) | also measured |
| --- | --- | --- | --- | --- | --- | --- | --- | --- | --- | --- | --- | --- | --- | --- |
| 11 nM | 11 nM | 0.72 µM | 0.54 µM | 0.89 µM | 0.54 µM | 0.89 µM | O=[N+]([O-])c1ccc2nc(Nc3ccc(F)c(C(F)(F)F)c3)c(Nc3ccc(F)c(C(F)(F)F)c3)nc2c1 [Compound 32, N2, N3-bis(4-fluoro-3-(trifluoromethyl)phenyl)-6-nitroquinoxaline-2,3-diamine] | 0.94 |  |  |  |  |  | Selectivity Index (SI) Adult worms (HepG2 cells; HepG2 CC50 versus adult worm EC50): 60.99 |
|  |  | 1.95 µM | 2 µM | 1.91 µM |  |  | O=C(Nc1ccc2nc(Nc3ccc(Cl)c(Cl)c3)c(Nc3ccc(Cl)c(Cl)c3)nc2c1)c1ccco1 [Compound 22f, N-(2,3-bis((3,4-dichlorophenyl)amino)quinoxalin-6-yl)furan-2-carboxamide] | 2.91 |  |  |  |  |  | EC50 (S. mansoni schistosomula; Table 5, Series C, read-out: Anti-schistosomal activity EC50 Schistosomula (μM) Motility): 2 µM; EC50 (S. mansoni schistosomula; Table 5, Series C, read-out: Anti-schistosomal activity EC50 Schistosomula (μM) Phenotype): 1.91 µM |
|  |  | 2.91 µM | 2.64 µM | 3.19 µM |  |  | O=[N+]([O-])c1ccc2nc(NCc3ccccc3)c(NCc3ccccc3)nc2c1 [Compound 36, N2, N3-dibenzyl-6-nitroquinoxaline-2,3-diamine] | 1.74 |  |  |  |  |  | EC50 (S. mansoni schistosomula; [10]): > 2 µM; EC50 (S. mansoni schistosomula; [11]): 2.64 µM; EC50 (S. mansoni schistosomula; [12]): 3.19 µM |
|  |  | 3.38 µM | 3.25 µM | 3.51 µM |  |  | Nc1ccc2nc(Nc3ccc(Cl)c(Cl)c3)c(Nc3ccc(Cl)c(Cl)c3)nc2c1 [Compound 22a, N^2, N^3-bis(3,4-dichlorophenyl)quinoxaline-2,3,6-triamine] |  |  |  |  |  |  | Toxicity on HepG2 in words (HepG2 cells; 24 h): low toxicity; EC50 (S. mansoni schistosomula; [10]): > 2 µM |
| 7.7 nM | 7.7 nM | 0.31 µM | 0.28 µM | 0.34 µM | 0.28 µM | 0.34 µM | O=[N+]([O-])c1ccc2nc(Nc3ccc(C(F)(F)F)cc3)c(Nc3ccc(C(F)(F)F)cc3)nc2c1 [Compound 31, 6-nitro-N2, N3-bis(4-(trifluoromethyl)phenyl)quinoxaline-2,3-diamine] |  | essentially lethal | 0 | 0 | 4 | 4 | Onset time on S. japonicum [1]: ≤ 24 h; DESCRIPTORS 24 h ([1]; S. japonicum, 24 h, one line per replicate): Dark, S, on sides; DESCRIPTORS 48 h [1, 13]: Dying, deg; DESCRIPTORS 72 h [1, 13]: Dying, D; Onset time on S. haematobium [2]: ≤ 24 h; Effect on S. haematobium adult worms ([2]; 5, 24, 48 and 72 h): best activity; SEVERITY SCORES 5 h ([2]; S. haematobium, 5 h, max = 4, one line per replicate): 0; SEVERITY SCORES 24 h ([2]; S. haematobium, 24 h, max = 4, one line per replicate): 2; DESCRIPTORS 24 h ([2]; S. haematobium, 24 h, one line per replicate): S, on sides; also recorded: S, onsides; SEVERITY SCORES 48 h ([2]; S. haematobium, 48 h, max = 4, one line per replicate): 2; DESCRIPTORS 48 h ([2]; S. haematobium, 48 h, one line per replicate): S, on sides; also recorded: S, onsides; SEVERITY SCORES 72 h ([2]; S. haematobium, 72 h, max = 4, one line per replicate): 3; DESCRIPTORS 72 h ([2]; S. haematobium, 72 h, one line per replicate): S, dark on sides |
| 20.3 nM | 20.3 nM | 0.41 µM | 0.39 µM | 0.42 µM | 0.39 µM | 0.42 µM | O=[N+]([O-])c1ccc2nc(Nc3ccc(Cl)cc3)c(Nc3ccc(Cl)cc3)nc2c1 [Compound 26, N^2, N^3-bis(4-chlorophenyl)-6-nitroquinoxaline-2,3-diamine] |  | decreased motility starting at 48 h | 0 | 0 | 1 | 2 and 1 | DESCRIPTORS 48 h [1, 13]: S; DESCRIPTORS 72 h [1, 13]: S, on sides and S |
|  | 195 nM | 1.84 µM | 1.47 µM | 2.2 µM |  |  | O=[N+]([O-])c1ccc2nc(NCCc3ccccc3)c(NCCc3ccccc3)nc2c1 [Compound 37, 6-nitro-N2, N3-diphenethylquinoxaline-2,3-diamine] |  |  |  |  |  |  | EC50 (S. mansoni adult worms; Table 3, read-out: Anti-schistosomal activity EC50 (μM) Adult Motility): 195 nM; EC50 (S. mansoni schistosomula; [11]): 1.47 µM; EC50 (S. mansoni schistosomula; [12]): 2.2 µM |
| 44 nM | 44 nM | 0.66 µM | 0.69 µM | 0.63 µM | 0.69 µM | 0.63 µM | COc1ccc(Nc2nc3ccc([N+](=O)[O-])cc3nc2Nc2ccc(OC)c(C(F)(F)F)c2)cc1C(F)(F)F [Compound 35, N2, N3-bis(4-methoxy-3-(trifluoromethyl)phenyl)-6-nitroquinoxaline-2,3-diamine] |  | no appreciable activity | 0 | 0 | 0 | 0 |  |
|  |  |  |  |  |  |  | Cc1ccc(Nc2nc3ccccc3nc2Nc2ccc(C)c(C)c2)cc1C [Compound 16] |  |  |  |  |  |  | Effect on adult worm motility at 12.5 and 6.25 μM (S. mansoni adult worms; 12.5 and 6.25 μM): particularly active; Activity on schistosomula in the primary screen at 10 μM (S. mansoni schistosomula; 10 μM, 72 h): retained activity; EC50 (S. mansoni schistosomula; 72 h, Table 1, 72 h, two dose response titrations (0.313–10 μM), 95% CI in brackets, read-out: Activity on schistosomula (EC50, μM - 72 h) Motility): 3.69 µM; EC50 (S. mansoni schistosomula; 72 h, Table 1, 72 h, two dose response titrations (0.313–10 μM), 95% CI in brackets, read-out: Activity on schistosomula (EC50, μM - 72 h) Phenotype): 5.42 µM; EC50 (S. mansoni schistosomula; 72 h, Table 1, mean of phenotype and motility EC50, 72 h, read-out: Activity on schistosomula (EC50, μM - 72 h) Average): 4.55 µM |
